From patent US4393225A, “AI-77 Compounds and pharmaceutically acceptable salts thereof” (Asahi Kasei Kogyo Kabushiki Kaisha, priority 1979, dated 1983)

These compounds were tested on ulcer (assay: Anti-ulcer test (restraint and water immersion ulcer in rats, i.p.)). Conditions: Rattus norvegicus, ip, read-out: % Inhibition of Ulcer.
Type: in vivo, Male Wistar rats
Protocol: The anti-ulcer and anti-edema activity of the compounds was evaluated in efficacy tests described below.
Male Wistar rats weighing about 150 g on average were not fed for 24 hours before the test. Then a solution or suspension of a predetermined concentration of the test compound in physiological saline was administered to them intraperitoneally. One hour after the administration,each rat was restrained in a net cage and submerged in a water both (21° C.) from the tail to xiphistrenun for 6 hours. Test animals were then killed (by dislocation of the cervical vertebrae), the stomach was removed and incised along the curvatura ventriculi major, and the inside wall of the stomach was pathologically examined under microscopic observation. Rats in which the occurrence of an ulceration was substantially not observed were rated O, while others were rated 0.5, 1, 2 or 3, depending on the severity of the ulcer development. The percent inhibition of ulcer was calculated by the following formula: [formula]

| SMILES | inhibition in vivo at 50 mg/kg [%] | inhibition in vivo at 25 mg/kg [%] |
| --- | --- | --- |
| CC(C)CC(NC(=O)C(O)C1OC(=O)CC1N)C1Cc2cccc(OCCCBr)c2C(=O)O1 (centres unmarked) [IIIa-13-19] | 100 | – |
| CCCCCOC(C)CCNC(=O)CC(N)C(O)C(O)C(=O)NC(CC(C)C)C1Cc2cccc(O)c2C(=O)O1 (centres unmarked) [VII-1-27] | – | 89 |
| CC(C)CC(=O)NC1CC(=O)OC1C(O)C(=O)NC(CC(C)C)C1Cc2cccc(O)c2C(=O)O1 (centres unmarked) [IIIa-1-5] | 66 | – |
| CCCCNC(CC(N)=O)C(O)C(OC(=O)CCC)C(=O)NC(CC(C)C)C1Cc2cccc(O)c2C(=O)O1 (centres unmarked) [VII-11-3] | – | 66 |

Same assay, conditions: Rattus norvegicus, ip; 25 mg/kg i.p.; read-out: % Inhibition of Ulcer

| SMILES | inhibition in vivo at 25 mg/kg [%] |
| --- | --- |
| CCCCOC(C(=O)NC(CC(C)C)C1Cc2cccc(OC)c2C(=O)O1)C(O)C(CC(N)=O)NC (centres unmarked) [VII-25-1] | 66 |
| CC(C)CC(NC(=O)C(O)C(O)C(N)CC(=O)NCc1ccccc1)C1Cc2cccc(O)c2C(=O)O1 (centres unmarked) [VII-1-10] | 94 |
| CCCCCCCCC=CCCCCCCCCNC(=O)CC(N)C(O)C(O)C(=O)NC(CC(C)C)C1Cc2cccc(O)c2C(=O)O1 (centres unmarked) [VII-1-8] | 89 |
| CCCCCCCCCCCCCCCCCC(=O)Oc1cccc2c1C(=O)OC(C(CC(C)C)NC(=O)C(OC)C(O)C(N)CC(N)=O)C2 (centres unmarked) [VII-9-2] | 56 |
| CC(C)CC(NC(=O)C(O)C(O)C(N)CC(N)=O)C1Cc2cccc(OC(=O)C(C)C)c2C(=O)O1 (centres unmarked) [VII-4-2] | 89 |
| CCC(=O)CNC(=O)CC(N)C(O)C(O)C(=O)NC(CC(C)C)C1Cc2cccc(O)c2C(=O)O1 (centres unmarked) [VII-1-21] | 100 |
| CC(C)CC(NC(=O)C(O)C(O)C(N)CC(=O)NCc1cccc(Cl)c1)C1Cc2cccc(O)c2C(=O)O1 (centres unmarked) [VII-1-20] | 94 |
| CC(C)CC(NC(=O)C(O)C(O)C(N)CC(=O)NCc1ccc(C(C)C)cc1)C1Cc2cccc(O)c2C(=O)O1 (centres unmarked) [VII-1-38] | 94 |
| CC(C)CC(NC(=O)C(O)C(O)C(N)CC(=O)NCC1CCCO1)C1Cc2cccc(O)c2C(=O)O1 (centres unmarked) [VII-1-15] | 89 |
| CCNC(CC(N)=O)C(O)C(OC(=O)CC)C(=O)NC(CC(C)C)C1Cc2cccc(OC(=O)C(C)C)c2C(=O)O1 (centres unmarked) [VII-12-1] | 56 |
| CCCCCCCCNC(CC(N)=O)C(O)C(O)C(=O)NC(CC(C)C)C1Cc2cccc(O)c2C(=O)O1 (centres unmarked) [VII-10-3] | 94 |
| CNC(CC(N)=O)C(O)C(O)C(=O)NC(CC(C)C)C1Cc2cccc(O)c2C(=O)O1 (centres unmarked) [VII-19-1] | 100 |
| CCCCCCCCCCCCCCCCCC(=O)Oc1cccc2c1C(=O)OC(C(CC(C)C)NC(=O)C(O)C(O)C(N)CC(N)=O)C2 (centres unmarked) [VII-4-3] | 78 |

Same assay, conditions: Rattus norvegicus, ip; 50 mg/kg i.p.; read-out: % Inhibition of Ulcer

| SMILES | inhibition in vivo at 50 mg/kg [%] |
| --- | --- |
| CCOc1cccc2c1C(=O)OC(C(CC(C)C)NC(=N)C(OC(=O)C(C)C)C(O)C(N)CC(=O)O)C2 (centres unmarked) [Vb-6-2] | 66 |
| CCCCCCCCCCCCCCCCCC(=O)Oc1cccc2c1C(=O)OC(C(CC(C)C)NC(=O)C(OCCCC)C1OC(=O)CC1NCC)C2 (centres unmarked) [IIIa-26-5] | 56 |
| CC(C)CC(NC(=O)C(O)C(O)C=CC(=O)NCc1cccc(Cl)c1)C1Cc2cccc(O)c2C(=O)O1 (centres unmarked) [VIII-1-4] | 44 |
| CCC(=O)C(=O)NC1CC(=O)OC1C(O)C(=O)NC(CC(C)C)C1Cc2cccc(O)c2C(=O)O1 (centres unmarked) [IIIa-1-32] | 66 |
| CCCC=Cc1ccc(COc2cccc3c2C(=O)OC(C(CC(C)C)NC(=O)C(O)C2OC(=O)CC2NC(=O)CCC)C3)cc1 (centres unmarked) [IIIa-5-120] | 33 |
| CCCCCOC(=O)c1ccc(C(=O)NC2CC(=O)OC2C(O)C(=O)NC(CC(C)C)C2Cc3cccc(O)c3C(=O)O2)cc1 (centres unmarked) [IIIa-1-51] | 44 |
| CC(C)CC(NC(=O)C(O)C1OC(=O)CC1N)C1Cc2cccc(OCCC3CCCCO3)c2C(=O)O1 (centres unmarked) [IIIa-13-15] | 94 |
| CC(=O)OC(C(=O)NC(CC(C)C)C1Cc2cccc(O)c2C(=O)O1)C1C=CC(=O)O1 (centres unmarked) [IVa-1-1] | 44 |
| CCCCOc1cccc2c1C(=O)OC(C(CC(C)C)NC(=O)C(OCCCC)C1OC(=O)CC1N)C2 (centres unmarked) [IIIa-15-2] | 56 |
| CCC(=O)OC(C(=N)NC(CC(C)C)C1Cc2cccc(O)c2C(=O)O1)C(O)C(N)CC(=O)O (centres unmarked) [Vb-2-1] | 66 |
| CC(=O)Oc1cccc2c1C(=O)OC(C(CC(C)C)NC(=O)C(O)C1OC(=O)CC1NC(=O)c1ccc(OCCC(C)C)cc1)C2 (centres unmarked) [IIIa-4-8] | 33 |
| CC(C)CC(NC(=O)C(OC(=O)C(Cl)(Cl)Cl)C1C=CC(=O)O1)C1Cc2cccc(O)c2C(=O)O1 (centres unmarked) [IVa-1-12] | 44 |
| CCNC1CC(=O)OC1C(OCC)C(=O)NC(CC(C)C)C1Cc2cccc(OCC)c2C(=O)O1 (centres unmarked) [IIIa-24-2] | 56 |
| CC(C)CC(NC(=O)C(O)C1C=CC(=O)O1)C1Cc2cccc(OCCc3ccc4ccccc4c3)c2C(=O)O1 (centres unmarked) [IVa-4-18] | 33 |
| CCC(=O)Oc1cccc2c1C(=O)OC(C(CC(C)C)NC(=O)C(OC)C1OC(=O)CC1N)C2 (centres unmarked) [IIIa-17-5] | 44 |
| CCCCCCCCCCCCCCCCCCNC1CC(=O)OC1C(OC(C)=O)C(=O)NC(CC(C)C)C1Cc2cccc(OCC)c2C(=O)O1 (centres unmarked) [IIIa-23-3] | 44 |
| CCOc1cccc2c1C(=O)OC(C(CC(C)C)NC(=O)C(O)C1OC(=O)CC1NC(=O)c1cn(C(C)=O)c3ccccc13)C2 (centres unmarked) [IIIa-5-34] | 33 |
| COc1ccc(COc2cccc3c2C(=O)OC(C(CC(C)C)NC(=O)C(O)C2C=CC(=O)O2)C3)cc1 (centres unmarked) [IVa-4-23] | 33 |
| CCCCCCCCCCCCOc1cccc2c1C(=O)OC(C(CC(C)C)NC(=O)C(O)C1OC(=O)CC1NCC)C2 (centres unmarked) [IIIa-22-9] | 83 |
| CCCCCc1ccc(C(=O)NC2CC(=O)OC2C(O)C(=O)NC(CC(C)C)C2Cc3cccc(OCC)c3C(=O)O2)cc1 (centres unmarked) [IIIa-5-73] | 44 |
| CC(C)CC(NC(=O)C(O)C1OC(=O)CC1N)C1Cc2cccc(OCc3ccco3)c2C(=O)O1 (centres unmarked) [IIIa-13-13] | 89 |
| CC(C)CC(NC(=N)C(O)C(O)C(N)CC(=O)O)C1Cc2cccc(OC(=O)C(C)C)c2C(=O)O1 (centres unmarked) [Vb-4-1] | 78 |
| CC(C)CC(NC(=O)C(O)C1OC(=O)CC1NC(=O)C1CCC=CO1)C1Cc2cccc(O)c2C(=O)O1 (centres unmarked) [IIIa-1-59] | 66 |

| SMILES | inhibition in vivo at 50 mg/kg [%] |
| --- | --- |
| CCOc1cccc2c1C(=O)OC(C(CC(C)C)NC(=O)C(OC(C)=O)C1OC(=O)CC1NC(=O)c1ccc(C)cc1)C2 (centres unmarked) [IIIa-6-8] | 22 |
| CCCC(=O)Oc1cccc2c1C(=O)OC(C(CC(C)C)NC(=O)C(OCC)C1OC(=O)CC1N)C2 (centres unmarked) [IIIa-17-3] | 56 |
| COc1cccc2c1C(=O)OC(C(CC(C)C)NC(=O)C(O)C1OC(=O)CC1NC(C)=O)C2 (centres unmarked) [IIIa-5-5] | 44 |
| CCOc1cccc2c1C(=O)OC(C(CC(C)C)NC(=O)C(OC(=O)C(C)C)C1OC(=O)CC1N)C2 (centres unmarked) [IIIa-14-2] | 56 |
| CCCCCC(=O)OC(C)CCOc1cccc2c1C(=O)OC(C(CC(C)C)NC(=O)C(OC)C1OC(=O)CC1NC(=O)CCC)C2 (centres unmarked) [IIIa-7-15] | 33 |
| CCOc1cccc2c1C(=O)OC(C(CC(C)C)NC(=O)C(O)C1OC(=O)CC1NCC=C(C)C)C2 (centres unmarked) [IIIa-22-72] | 94 |
| Cc1ccc(COc2cccc3c2C(=O)OC(C(CC(C)C)NC(=O)C(O)C2OC(=O)CC2N)C3)cc1 (centres unmarked) [IIIa-13-21] | 89 |
| CCCC(=O)Oc1cccc2c1C(=O)OC(C(CC(C)C)NC(=O)C(OC(C)=O)C1OC(=O)CC1N)C2 (centres unmarked) [IIIa-11-6] | 56 |
| CCCC(=O)NC1CC(=O)OC1C(OC(C)C)C(=O)NC(CC(C)C)C1Cc2cccc(OCC3CCCCC3)c2C(=O)O1 (centres unmarked) [IIIa-7-12] | 33 |
| CC(=O)n1cc(C(=O)NC2CC(=O)OC2C(O)C(=O)NC(CC(C)C)C2Cc3cccc(O)c3C(=O)O2)c2ccccc21 (centres unmarked) [IIIa-1-17] | 66 |
| CC(C)CC(NC(=O)C(O)C1OC(=O)CC1NC(=O)Cc1cccnc1)C1Cc2cccc(O)c2C(=O)O1 (centres unmarked) [IIIa-1-58] | 66 |
| CC(C)CC(NC(=O)C(O)C1C=CC(=O)O1)C1Cc2cccc(OCCc3ccccc3)c2C(=O)O1 (centres unmarked) [IVa-4-12] | 44 |
| CCCCCCCCC=CCCCCCCCC(=O)Oc1cccc2c1C(=O)OC(C(CC(C)C)NC(=O)C(O)C1C=CC(=O)O1)C2 (centres unmarked) [IVa-3-12] | 33 |
| CNC1CC(=O)OC1C(OC(=O)CC(C)C)C(=O)NC(CC(C)C)C1Cc2cccc(O)c2C(=O)O1 (centres unmarked) [IIIa-28-2] | 66 |
| CCOc1cccc2c1C(=O)OC(C(CC(C)C)NC(=O)C(O)C1OC(=O)CC1NC(=O)c1cccs1)C2 (centres unmarked) [IIIa-5-25] | 44 |
| CC(C)CC(NC(=O)C(O)C1OC(=O)CC1NC(=O)CC1CC1)C1Cc2cccc(O)c2C(=O)O1 (centres unmarked) [IIIa-1-79] | 66 |
| CCCCOc1cccc2c1C(=O)OC(C(CC(C)C)NC(=O)C(O)C1OC(=O)CC1NC(C)=O)C2 (centres unmarked) [IIIa-5-3] | 44 |
| CCOC(C(=O)NC(CC(C)C)C1Cc2cccc(OC(=O)C(Cl)(Cl)Cl)c2C(=O)O1)C1OC(=O)CC1N (centres unmarked) [IIIa-17-6] | 56 |
| CCCCCCCCCCCCCCCCCCOc1cccc2c1C(=O)OC(C(CC(C)C)NC(=O)C(O)C1OC(=O)CC1N)C2 (centres unmarked) [IIIa-13-5] | 72 |
| CCOC(C(=O)NC(CC(C)C)C1Cc2cccc(O)c2C(=O)O1)C1OC(=O)CC1N (centres unmarked) [IIIa-16-7] | 72 |
| CCCCCCCCCCCC(=O)NC1CC(=O)OC1C(O)C(=O)NC(CC(C)C)C1Cc2cccc(O)c2C(=O)O1 (centres unmarked) [IIIa-1-10] | 66 |
| CCOc1cccc2c1C(=O)OC(C(CC(C)C)NC(=O)C(O)C1OC(=O)CC1NC(=O)CCCBr)C2 (centres unmarked) [IIIa-5-31] | 44 |
